Assay results from paper PMC8387444 (Bioorganic chemistry, 2021).

How the values were obtained:
human CRFR1 [1] = molecular target: T1, human CRFR1 (Homo sapiens, UniProt P34998); assay type: binding; conditions: for inhibition at 0.5 µM: read-out: Inhibition of [125I]-Tyr0-sauvagine specific binding; for Binding affinity fold lower than that of antalarmin: relative to antalarmin
T1 sequence (P34998 24-415): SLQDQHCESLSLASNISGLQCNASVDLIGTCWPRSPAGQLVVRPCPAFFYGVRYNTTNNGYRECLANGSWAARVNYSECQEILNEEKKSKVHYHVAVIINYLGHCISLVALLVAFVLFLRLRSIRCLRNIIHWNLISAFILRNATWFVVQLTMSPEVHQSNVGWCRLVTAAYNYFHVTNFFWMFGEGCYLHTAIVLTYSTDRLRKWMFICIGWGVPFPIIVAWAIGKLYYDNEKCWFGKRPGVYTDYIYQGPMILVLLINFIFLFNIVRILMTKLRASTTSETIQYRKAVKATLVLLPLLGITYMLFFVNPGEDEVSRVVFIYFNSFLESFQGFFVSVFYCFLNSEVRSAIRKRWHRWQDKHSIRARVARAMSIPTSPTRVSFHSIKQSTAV

human CRFR1 [2] = molecular target: T1, human CRFR1

Row | Ki (human CRFR1 [1]) | inhibition at 0.5 µM (human CRFR1 [1]) | Binding affinity fold lower than that of antalarmin (human CRFR1 [1]) | IC50 (human CRFR1 [2]) | Times less potent than antalarmin to inhibit CRF-stimulated cAMP accumulation (human CRFR1 [2]; relative to antalarmin) | Compound
1 | 32.1 nM | > 50% | 2 fold | 2150 nM | 100 times | CCCN(CCC)c1nc(C)nc2c1sc(=O)n2-c1ccc(OC)cc1OC [8c, 3-(2,4-Dimethoxyphenyl)-7-(dipropylamino)-5-methylthiazolo[4,5-d]pyrimidin-2(3H)-one]
2 |  | < 50% |  |  |  | CCN(CC)c1nc(C)nc2c1sc(=O)n2-c1ccc(OC)cc1OC [8b, 7-(Diethylamino)-3-(2,4-dimethoxyphenyl)-5-methylthiazolo[4,5-d]pyrimidin-2(3H)-one]
3 |  | < 50% |  |  |  | CCCCN(CCCC)c1nc(C)nc2c1sc(=O)n2-c1ccc(OC)cc1OC [8d, 7-(Dibutylamino)-3-(2,4-dimethoxyphenyl)-5-methylthiazolo[4,5-d]pyrimidin-2(3H)-one]
4 |  | < 50% |  |  |  | CCCNc1nc(C)nc2c1sc(=O)n2-c1ccc(OC)cc1OC [8a, 3-(2,4-Dimethoxyphenyl)-5-methyl-7-(propylamino)thiazolo[4,5-d]pyrimidin-2(3H)-one]

Continued, molecule first:

Row | Compound | Ki (human CRFR1 [1]) | inhibition at 0.5 µM (human CRFR1 [1]) | Binding affinity fold lower than that of antalarmin (human CRFR1 [1]) | IC50 (human CRFR1 [2]) | Times less potent than antalarmin to inhibit CRF-stimulated cAMP accumulation (human CRFR1 [2]; relative to antalarmin)
5 | CCCCN(CCCC)c1nc(C)nc2c1sc(=S)n2-c1ccc(OC)cc1OC [5d, 7-(Dibutylamino)-3-(2,4-dimethoxyphenyl)-5-methylthiazolo[4,5-d]pyrimidine-2(3H)-thione] | 91.2 nM | > 50% | 6 fold |  | 
6 | CCCCN(CC)c1nc(C)nc2c1sc(=S)n2-c1ccc(OC)cc1OC [5e, 7-(Butyl(ethyl)amino)-3-(2,4-dimethoxyphenyl)-5-methylthiazolo[4,5-d]pyrimidine-2(3H)-thione] | 170 nM | > 50% | 10 fold |  | 
7 | CCN(CC)c1nc(C)nc2c1sc(=S)n2-c1ccc(OC)cc1OC [5b, 7-(Diethylamino)-3-(2,4-dimethoxyphenyl)-5-methylthiazolo[4,5-d]pyrimidine-2(3H)-thione] | 84.5 nM | > 50% | 5 fold |  | 
8 | CCCCN(CC)c1nc(C)nc2c1c(C)c(C)n2-c1c(C)cc(C)cc1C [antalarmin, reference compound] | 16.2 nM |  |  | 26 nM | 
9 | CCCNc1nc(C)nc2c1sc(=S)n2-c1ccc(OC)cc1OC [5a, 3-(2,4-Dimethoxyphenyl)-5-methyl-7-(propylamino)thiazolo[4,5-d]pyrimidine-2(3H)-thione] |  | < 50% |  |  | 
